Experimental data published in patent US20230132823A1, “BI-FUNCTIONAL COMPOUNDS AND METHODS FOR TARGETED UBIQUITINATION OF ANDROGEN RECEPTOR” (MONTELINO THERAPEUTICS, INC., priority 2020, published 2023).
pIC50: −log10 of the molar value. Structures can show the parent of a compound that is named as a salt. Where a SMILES comes first, the peptide text is derived from it. [ ]: non-standard residue; d: D form. The star is where a group is joined. X4 = O=C(COc1c(-c2csc(N3CCOCC3)n2)ccc(F)c1F)NCCCCN*; Dip = N[C@H](C(=O)O)C(c1ccccc1)c1ccccc1; Chg = N[C@H](C(=O)O)C1CCCCC1; NMeA = CN[C@@H](C)C(=O)O

System: 22Rv1-Enz^R
Test: 22Rv1-Enz^R cell proliferation assay, GIC50 (Experimental Example 4)
Assay type: cell-based
Conditions: Homo sapiens; 6-day culture, cell media changed every 24 hours
Method: Selected compounds were tested in the human prostate cancer cell line, 22Rv1-Enz^R as described in Geun Taek Lee et al., Molecular Cancer Therapeutics, 20:490-9 (2021). These procedures are similar to that described in Experimental Example 1, above, except that the assay conditions are a 6-day culture with cell media changed every 24 hours.
In the Table: (+)—GIC50<20 μM; (++)—GIC50<10 μM; (+++)—GIC50<1 μM.

Structure (SMILES) | pIC50
Cc1ncsc1-c1ccc([C@H](C)NC(=O)[C@@H]2C[C@@H](O)CN2C(=O)[C@@H](NC(=O)CCC(=O)NCCOCCOc2c(-c3csc(N4CCOCC4)n3)ccc(F)c2F)C(C)(C)C)cc1 [Example 39, N^1-(2-(2-(2,3-difluoro-6-(2-morpholinothiazol-4-yl)phenoxy)ethoxy)ethyl)-N^4-((S)-1-((2S,4R)-4-hydroxy-2-(((S)-1-(4-(4-methylthiazol-5-yl)phenyl)ethyl)carbamoyl)pyrrolidin-1-yl)-3,3-dimethyl-1-oxobutan-2-yl)succinamide] | > 4.70
Cc1ncsc1-c1ccc([C@H](C)NC(=O)[C@@H]2C[C@@H](O)CN2C(=O)[C@@H](NC(=O)CNCCOCCOc2c(-c3csc(N4CCOCC4)n3)ccc(F)c2F)C(C)(C)C)cc1 [Example 40, (2S,4R)-1-((S)-2-(2-((2-(2-(2,3-difluoro-6-(2-morpholinothiazol-4-yl)phenoxy)ethoxy)ethyl)amino)acetamido)-3,3-dimethylbutanoyl)-4-hydroxy-N-((S)-1-(4-(4-methylthiazol-5-yl)phenyl)ethyl)pyrrolidine-2-carboxamide] | > 6.00
Cc1ncsc1-c1ccc([C@H](C)NC(=O)[C@@H]2C[C@@H](O)CN2C(=O)[C@@H](NC(=O)CCC(=O)NCCCOc2c(-c3csc(N4CCOCC4)n3)ccc(F)c2F)C(C)(C)C)cc1 [Example 38, N^1-(3-(2,3-difluoro-6-(2-morpholinothiazol-4-yl)phenoxy)propyl)-N^4-((S)-1-((2S,4R)-4-hydroxy-2-(((S)-1-(4-(4-methylthiazol-5-yl)phenyl)ethyl)carbamoyl)pyrrolidin-1-yl)-3,3-dimethyl-1-oxobutan-2-yl)succinamide] | > 4.70
Cc1ncsc1-c1ccc([C@H](C)NC(=O)[C@@H]2C[C@@H](O)CN2C(=O)[C@@H](NC(=O)CCCCCCOc2c(F)ccc3sc(N4CCOCC4)nc23)C(C)(C)C)cc1 [Example 43, (2S,4R)-1-((S)-2-(7-((5-fluoro-2-morpholinobenzo[d]thiazol-4-yl)oxy)heptanamido)-3,3-dimethylbutanoyl)-4-hydroxy-N-((S)-1-(4-(4-methylthiazol-5-yl)phenyl)ethyl)pyrrolidine-2-carboxamide] | > 4.70
Cc1ncsc1-c1ccc([C@H](C)NC(=O)[C@@H]2C[C@@H](O)CN2C(=O)[C@@H](NC(=O)CCCCOc2c(-c3csc(N4CCOCC4)n3)ccc(F)c2F)C(C)(C)C)cc1 [Example 41, (2S,4R)-1-((S)-2-(5-(2,3-difluoro-6-(2-morpholinothiazol-4-yl)phenoxy)pentanamido)-3,3-dimethylbutanoyl)-4-hydroxy-N-((S)-1-(4-(4-methylthiazol-5-yl)phenyl)ethyl)pyrrolidine-2-carboxamide] | > 5.00
Cc1ccc(-c2csc(N3CCOCC3)n2)c(OCC(=O)NCCCCC(=O)N[C@H](C(=O)N2C[C@H](O)C[C@H]2C(=O)N[C@@H](C)c2ccc(-c3scnc3C)cc2)C(C)(C)C)c1C [Example 37, (2S,4R)-1-((S)-2-(5-(2-(2,3-dimethyl-6-(2-morpholinothiazol-4-yl)phenoxy)acetamido)pentanamido)-3,3-dimethylbutanoyl)-4-hydroxy-N-((S)-1-(4-(4-methylthiazol-5-yl)phenyl)ethyl)pyrrolidine-2-carboxamide] | > 6.00

System: 22Rv1
Test: 22Rv1 cell proliferation assay (Experimental Example 1, cell count)
Assay type: cell-based
Conditions: Homo sapiens, 22Rv1, read-out: 22Rv1 cell count decrease at 10 μM for 48 hours
Method: The human prostate cancer cell line, 22Rv1 has been reported to express a high level of AR-V7. […] Standard culture media was RPMI-1640 supplemented with 10% fetal bovine serum. The test compound initially was dissolved in DMSO at 50 mM. This stock solution was then diluted as needed for the indicated concentrations. […]
In the Table: (+)—the cell count decreased between 0 and 20%; (++)—the cell count decreased […]; (+++)—the cell count decreased by more than 50%.

Structure (SMILES) | inhibition at 10 µM
CN[C@@H](C)C(=O)N[C@H](C(=O)N1CCC[C@H]1C(=O)N[C@H](C(=O)NCCCCNC(=O)COc1c(-c2csc(N3CCOCC3)n2)ccc(F)c1F)C(c1ccccc1)c1ccccc1)C1CCCCC1 [Example 25, (S)-1-((S)-2-cyclohexyl-2-((S)-2-(methylamino)propanamido)acetyl)-N-((S)-1-((4-(2-(2,3-difluoro-6-(2-morpholinothiazol-4-yl)phenoxy)acetamido)butyl)amino)-1-oxo-3,3-diphenylpropan-2-yl)pyrrolidine-2-carboxamide] (H-[NMeA][Chg]P[Dip]-X4) | > 50%

Same assay, conditions: Homo sapiens, 22Rv1, read-out: 22Rv1 cell count decrease at 10 μM for 48 hours; 10 μM (method: four days); read-out: 22Rv1 cell count decrease at 10 μM

Structure (SMILES) | inhibition at 10 µM
COc1cc(C(=O)NCCCCNC(=O)COc2c(-c3csc(N4CCOCC4)n3)ccc(F)c2F)ccc1NC(=O)[C@@H]1N[C@@H](CC(C)(C)C)[C@](C#N)(c2ccc(Cl)cc2F)[C@H]1c1cccc(Cl)c1F [Example 28, (2R,3S,4R,5S)-3-(3-chloro-2-fluorophenyl)-4-(4-chloro-2-fluorophenyl)-4-cyano-N-(4-((4-(2-(2,3-difluoro-6-(2-morpholinothiazol-4-yl)phenoxy)acetamido)butyl)carbamoyl)-2-methoxyphenyl)-5-neopentylpyrrolidine-2-carboxamide] | > 50%
O=C(COc1c(-c2csc(N3CCOCC3)n2)ccc(F)c1F)NCCCCCCCCNc1cccc2c1C(=O)N(C1CCC(=O)NC1=O)C2=O (centres unmarked) [Example 2, 2-(2,3-difluoro-6-(2-morpholinothiazol-4-yl)phenoxy)-N-(8-((2-(2,6-dioxopiperidin-3-yl)-1,3-dioxoisoindolin-4-yl)amino)octyl)acetamide] | 0 to 20%
Cc1ncsc1-c1ccc([C@H](C)NC(=O)[C@@H]2C[C@@H](O)CN2C(=O)[C@@H](NC(=O)CCCCCCNC(=O)COc2c(-c3csc(N4CCOCC4)n3)ccc(F)c2F)C(C)(C)C)cc1 [Example 18, (2S,4R)-1-((S)-2-(7-(2-(2,3-difluoro-6-(2-morpholinothiazol-4-yl)phenoxy)acetamido)heptanamido)-3,3-dimethylbutanoyl)-4-hydroxy-N-((S)-1-(4-(4-methylthiazol-5-yl)phenyl)ethyl)pyrrolidine-2-carboxamide] | < 50%
CN[C@@H](C)C(=O)N[C@H](C(=O)N1Cc2cc(OCCOCCOCCOc3c(-c4csc(N5CCOCC5)n4)ccc(F)c3F)ccc2C[C@H]1C(=O)N[C@@H]1CCCc2ccccc21)C(C)(C)C [Example 36, (S)-7-(2-(2-(2-(2,3-difluoro-6-(2-morpholinothiazol-4-yl)phenoxy)ethoxy)ethoxy)ethoxy)-2-((S)-3,3-dimethyl-2-((S)-2-(methylamino)propanamido)butanoyl)-N-((R)-1,2,3,4-tetrahydronaphthalen-1-yl)-1,2,3,4-tetrahydroisoquinoline-3-carboxamide dihydrochloride] | > 50%
O=C1CCC(N2C(=O)c3cccc(NCCCCCCNC(=O)c4nc(Br)n(-c5csc(N6CCOCC6)n5)c4Br)c3C2=O)C(=O)N1 (centres unmarked) [Example 33, 2,5-dibromo-N-(6-((2-(2,6-dioxopiperidin-3-yl)-1,3-dioxoisoindolin-4-yl)amino)hexyl)-1-(2-morpholinothiazol-4-yl)-1H-imidazole-4-carboxamide] | 0 to 20%
Cc1ncsc1-c1ccc([C@H](C)NC(=O)[C@@H]2C[C@@H](O)CN2C(=O)[C@@H](NC(=O)COCCOCCNC(=O)COc2c(-c3csc(N4CCOCC4)n3)ccc(F)c2F)C(C)(C)C)cc1 [Example 20, (2S,4R)-1-((S)-2-(tert-butyl)-14-(2,3-difluoro-6-(2-morpholinothiazol-4-yl)phenoxy)-4,13-dioxo-6,9-dioxa-3,12-diazatetradecanoyl)-4-hydroxy-N-((S)-1-(4-(4-methylthiazol-5-yl)phenyl)ethyl)pyrrolidine-2-carboxamide] | < 50%
Cc1ncsc1-c1ccc([C@H](C)NC(=O)[C@@H]2C[C@@H](O)CN2C(=O)[C@@H](NC(=O)CCCNC(=O)COc2c(-c3csc(N4CCOCC4)n3)ccc(F)c2F)C(C)(C)C)cc1 [Example 15, (2S,4R)-1-((S)-2-(4-(2-(2,3-difluoro-6-(2-morpholinothiazol-4-yl)phenoxy)acetamido)butanamido)-3,3-dimethylbutanoyl)-4-hydroxy-N-((S)-1-(4-(4-methylthiazol-5-yl)phenyl)ethyl)pyrrolidine-2-carboxamide] | < 50%
